{"source": "patent US20090258949A1", "about": "“AMORPHOUS FORM OF CINACALCET” (priority 2006, published 2009)", "experiment": "Stress stability of amorphous Cinacalcet Hydrochloride, assay by HPLC", "assay_type": "physicochemical", "settings": "stressed in a closed vial at 60° C. for 24 hours", "protocol": "A sample of amorphous Cinacalcet Hydrochloride from Example 1 was stressed in a closed vial at 60° C. for 24 hours. […] Vol 7 μm; temperature 40° C. sample preparation: approximately 10 mg of sample dissolved in 25 ml of eluent B gradient: [table] Area %/mg of starting material and stressed sample were compared", "note": "Counter-ions that a name gives are not always drawn.", "data": [{"smiles": "C[C@@H](NCCCc1cccc(C(F)(F)F)c1)c1cccc2ccccc12", "note": "[N-[1-(R)-(−)-(1-naphthyl)ethyl]-3-[3-(trifluoromethyl)phenyl]-1-aminopropane hydrochloride]", "values": [{"measurement": "decrease in assay measured by HPLC (area %/mg of starting material and stressed sample compared)", "value": "No decrease in assay"}]}]}
